According to patent publication US20230255927A1 (ELANCO TIERGESUNDHEIT AG, priority 2022, published 2023):

Columns and labels:
lactating dairy cows = assay: New York/Cornell Study: dietary monensin fed to lactating dairy cows; assay type: in vivo
Description: Lactating dairy cows were used for the instant example. Methods: One-hundred ninety-two lactating cows (120±50 DIM) were randomly assigned to 12 pens each including 16 cows.

lactating Holstein cows = assay: Wisconsin Study: dietary monensin fed to lactating cows for 9 weeks; assay type: in vivo
Procedure: Methods: […] All cows received 11 g/ton Rumensin for a 5-week covariate period after which pens received 1 of 4 dietary treatments (n=3) formulated to provide 0 g/ton (Control, “CON”), 11 g/ton (R11), 14.5 g/ton (R14.5), or 18 g/ton (R18) of Rumensin for 9 weeks. Basal diet was 54% forage and 27% Neutral Detergent Fiber (NDF), 29% starch, and 2.3% Rumen Unsaturated Fatty Acid Load (RUFAL). The pen was the experimental unit, and data were analyzed using the Fit Model Procedure of JMP with treatment as a fixed effect and pen as a random effect. LS-means were determined and contrasts of CON vs. R11, CON vs. R14.5, CON vs. R18, and linear and quadratic effects were tested.

[1] = all treatments, not affected by treatment

## CC[C@@]1([C@@H]2O[C@@H]([C@H]3O[C@@](O)(CO)[C@H](C)C[C@@H]3C)C[C@@H]2C)CC[C@H]([C@]2(C)CC[C@]3(C[C@H](O)[C@@H](C)[C@@H]([C@@H](C)[C@@H](OC)[C@H](C)C(=O)O)O3)O2)O1 [monensin]
Lactating dairy cows; R11, 11 g/ton
  DMI: 59 lb/d
  ECM: 103 lb/d
  Estimated Dietary Energy: 1.65 Mcal/kg DM
  Milk Fat: 4.67%
  Milk Yield: 88 lb/d
  Protein: 3.38%
Lactating dairy cows; R11 group, 11 g/ton
  Energy-corrected milk (ECM): 46.9 kg/day
  Milk Yield: 39.9 kg/day
  Milk fat yield: 1.83 kg/day
  Milk protein yield: 1.33 kg/day
Lactating dairy cows; R14.5, 14.5 g/ton
  DMI: 59 lb/d
  ECM: 104 lb/d
  Estimated Dietary Energy: 1.65 Mcal/kg DM
  Milk Fat: 4.71%
  Milk Yield: 87 lb/d
  Protein: 3.37%
Lactating dairy cows; R14.5 group, 14.5 g/ton
  Energy-corrected milk (ECM): 47.1 kg/day
  FA unsaturation compared to CON: significantly reduced
  Milk Yield: 39.7 kg/day
  Milk fat yield: 1.85 kg/day
  Milk protein yield: 1.33 kg/day
Lactating dairy cows; R18, 18 g/ton
  DMI: 61 lb/d
  ECM: 103 lb/d
  Estimated Dietary Energy: 1.68 Mcal/kg DM
  Milk Fat: 4.67%
  Milk Yield: 87 lb/d
  Protein: 3.39%
Lactating dairy cows; R18 group, 18 g/ton
  DMI: increased numerically
  Energy-corrected milk (ECM): 46.8 kg/day
  FA unsaturation compared to CON: significantly reduced
  Milk Yield: 39.6 kg/day
  Milk fat yield: 1.83 kg/day
  Milk protein yield: 1.33 kg/day
Lactating dairy cows; all treatment groups
  Milk fat percentage: greater than 4.6%
  Milk true protein percent: ≥ 3.35%
Lactating dairy cows; increasing monensin supplementation, non-significant
  Increase in ECM: 2%
Lactating Holstein cows; R11, 11 g/ton
  DMI: 60 lb/d
  De novo fatty acid yield: 0.99 g/100 g milk
  ECM: 106 lb/d
  Estimated Dietary Energy: 1.70 Mcal/kg DM
  Milk Fat: 4.13%
  Milk Yield: 98 lb/d
  Protein: 3.16%
Lactating Holstein cows; R11, 11 g/ton, P=0.04
  Milk fat yield increase vs. CON: 0.08 kg/day
Lactating Holstein cows; R11, 11 g/ton, P=0.05
  ECM/DMI increase vs. CON: 2.9%
Lactating Holstein cows; R11, 11 g/ton, P=0.09
  ECM increase vs CON: 1.3 kg/day
Lactating Holstein cows; R14.5, 14.5 g/ton
  DMI: 60 lb/d
  ECM: 105 lb/d
  Estimated Dietary Energy: 1.71 Mcal/kg DM
  Milk Fat: 4.04%
  Milk Yield: 99 lb/d
  Protein: 3.14%
Lactating Holstein cows; R14.5, 14.5 g/ton, P=0.02
  ECM/DMI increase vs. CON: 3.5%
Lactating Holstein cows; R18, 18 g/ton
  DMI: 58 lb/d
  ECM: 102 lb/d
  Estimated Dietary Energy: 1.73 Mcal/kg DM
  Milk Fat: 3.97%
  Milk Yield: 97 lb/d
  Protein: 3.14%
Lactating Holstein cows; R18, 18 g/ton, P=0.01
  Estimated dietary energy increase vs. CON: 3.0%
Lactating Holstein cows; R18, 18 g/ton, P=0.09
  ECM/DMI increase vs. CON: 2.3%
Lactating Holstein cows; R18, 18 g/ton, listed as Rumensin
  DMI: 26.4 kg/day
Lactating Holstein cows; [1]
  Milk Yield: 44 kg/day
  Milk fat percentage: 4.0%
  Milk protein percentage: 3.2%
  Milk protein yield: 1.4 kg/day
